Converted amounts (≈) assume the structure as drawn. Where two headings read alike, the source gives them in different places.
What was measured:
[1] = system: Aspergillus niger ATCC 16404; test: Broth microdilution antifungal susceptibility (MIC/MFC); type: cell-based; settings: for MIC / MFC: Aspergillus niger; for MIC: ATCC16404, 48 h, read-out: MIC, An ATCC 16404; for MIC / MIC, An ATCC 16404: broth microdilution, 35°C, 48 h; for MFC: ATCC16404, ≥99.9% reduction of original inoculum, read-out: MFC, An ATCC 16404
Outline: (§1)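 CLSI broth microdilution: Ca/Mg-supplemented Mueller-Hinton for bacteria (~5 × 10^5 CFU/mL, 24 h), MOPS-buffered RPMI 1640 pH 7.0 for fungi (Candida ~2.5 × 10^4, Aspergillus 0.4-5 × 10^4 CFU/mL, 48 h), 35°C, 1% DMSO, 64 to 0.12 μg/mL. MIC read visually; MBC/MFC by plating clear wells.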

[2] = system: Candida albicans ATCC 90028; test: as above; type: cell-based; settings: for MIC / MFC: Candida albicans; for MIC: ATCC90028, 48 h, read-out: MIC, Ca ATCC 90028; for MFC: ATCC90028, ≥99.9% reduction of original inoculum, read-out: MFC, Ca ATCC 90028
Outline: as §1

[3] = system: Candida glabrata ATCC 90030; test: as above; type: cell-based; settings: Nakaseomyces glabratus; for MFC: ATCC90030, ≥99.9% reduction of original inoculum, read-out: MFC, Cg ATCC 90030; for MIC: ATCC90030, 48 h, broth microdilution, 35°C, 48 h, read-out: MIC, Cg ATCC 90030
Outline: as §1

[4] = system: Aspergillus fumigatus ATCC 16424; test: as above; type: cell-based; settings: for MIC / MFC: Aspergillus fumigatus; for MIC: ATCC16424, 48 h, read-out: MIC, Af ATCC 16424; for MIC / MIC, Af ATCC 16424: broth microdilution, 35°C, 48 h; for MFC: ATCC16424, ≥99.9% reduction of original inoculum, read-out: MFC, Af ATCC 16424
Outline: as §1

[5] = system: L. donovani promastigotes; test: Dose-dependent anti-promastigote activity, IC50 and IC90; type: cell-based, Leishmania donovani; settings: for Anti-leishmanial activity, in words (compounds with IC50 determined): L. donovani promastigotes
Experimental: (§2) L. donovani parasites (MHOM/IN/83/AG83) were maintained in vivo in BALB/c mice. Promastigotes were routinely cultured at 22°C in medium M199 supplemented with 10% heat inactivated fetal bovine serum (FBS, HiMedia Laboratories, Mumbai, India), penicillin 100 (IU/ml), streptomycin (100 μg/ml). Log phase promastigotes were sub-cultured every 72–96 h, the inoculum being 2 × 10^6 cells/ml (Afrin et al., [2002]).
AmB was used as a standard antileishmanial drug control. The cell viability was evaluated by microscopically and the mean percentage viability was calculated as follows: Mean cell number of treated parasites / Mean cell number of untreated parasites × 100. The 50 and 90% inhibitory concentration (IC50 and IC90) i.e., the concentration of drugs that decreased the cell growth by 50 and 90% respectively was determined by graphical extrapolation after plotting the graph of % viability vs. concentration of drug (Islamuddin et al., [2014b]).
(§3) In vitro antileishmanial activity was expressed as IC50 by linear regression analysis. Values are mean ± SE of samples in triplicate from at least three independent experiments. Statistical analysis was performed using ANOVA followed by Dunnett's test. ^*P < 0.05, ^**P < 0.01 and ^***P < 0.001 compared with the untreated control group were considered significant.

[6] = system: Pseudomonas aeruginosa ATCC 27853; test: Broth microdilution antibacterial susceptibility (MIC/MBC); type: cell-based; settings: for MIC / MBC: Pseudomonas aeruginosa; for MIC: ATCC27853, 24 h, read-out: MIC, Pa ATCC 27853; for MIC / MIC, Pa ATCC 27853: broth microdilution, 35°C, 24 h; for MBC: ATCC27853, ≥99.9% reduction of original inoculum, read-out: MBC, Pa ATCC 27853
Outline: as §1

[7] = system: Staphylococcus epidermidis ATCC 14990; test: as above; type: cell-based; settings: for MIC / MBC: Staphylococcus epidermidis; for MIC: ATCC14990, 24 h, read-out: MIC, Se ATCC 14990; for MIC / MIC, Se ATCC 14990: broth microdilution, 35°C, 24 h; for MBC: ATCC14990, ≥99.9% reduction of original inoculum, read-out: MBC, Se ATCC 14990
Outline: as §1

[8] = system: Staphylococcus aureus ATCC 29213; test: as above; type: cell-based; settings: for MIC / MBC: Staphylococcus aureus; for MIC: ATCC29213, 24 h, read-out: MIC, Sa ATCC 29213; for MIC / MIC, Sa ATCC 29213: broth microdilution, 35°C, 24 h; for MBC: ATCC29213, ≥99.9% reduction of original inoculum, read-out: MBC, Sa ATCC 29213
Outline: as §1

[9] = system: Escherichia coli ATCC 25922; test: as above; type: cell-based; settings: for MIC / MBC: Escherichia coli; for MIC: ATCC25922, 24 h, read-out: MIC, Ec ATCC 25922; for MIC / MIC, Ec ATCC 25922: broth microdilution, 35°C, 24 h; for MBC: ATCC25922, ≥99.9% reduction of original inoculum, read-out: MBC, Ec ATCC 25922
Outline: as §1

[10] = system: L. donovani promastigotes; test: Anti-leishmanial screening at 100 μM, parasite viability by microscopy; type: cell-based, Leishmania donovani; settings: 100 μM, 72 h, phase contrast microscope
Experimental: as §2
Nitrostyrine series were screened for their antileishmanial activity against L. donovani promastigotes in vitro. Promastigotes of L. donovani (2 × 10^6 cells/mL) in M199 medium were incubated at 22°C for 72 h with each compound at a concentration of 100 μM. Amphotericin B (AmB) served as reference drug, 0.2% DMSO was used as solvent control. Parasites with media alone were taken as control. Parasite viability was determined microscopically after 72 h (Islamuddin et al., [2014b]).

[11] = system: L. donovani promastigotes; test: Leishmanicidal assay (growth reversion after wash-out); type: cell-based, Leishmania donovani; settings: 1 μM, 72 h treatment, then 72 h in fresh media
Experimental: To confirm the leishmanicidal effect of compounds 9, 12, 14, and 18, treated and untreated parasites (1 μM) after 72 h of incubation, were washed two times with fresh incomplete medium and finally resuspended in complete media, transferred back to 22°C and allowed to grow for 72 h. The viability of the parasites was determined microscopically (Afrin et al., [2001]).

[12] = system: L. donovani intracellular amastigotes; test: Anti-amastigote activity in ex vivo macrophage model; type: cell-based, Leishmania donovani; settings: Leishmania donovani, Peritoneal macrophage, in Mus musculus; intracellular amastigotes in BALB/c peritoneal macrophages, 48 h; read-out: L. donovani amastigotes IC50 ± SEM
From the text: BALB/c mice was used for the isolation of peritoneal macrophages in the ex vivo anti-amastigote study after prior approval from the Jamia Hamdard Animal Ethics Committee (JHAEC). JHAEC is registered under the Committee for the purpose of supervision and control of experiments on animals (CPCSEA). Mice were individually housed in the Central Animal House of Jamia Hamdard as per internationally accepted norms. The mice were kept in standard size polycarbonate cages under controlled conditions of temperature (23 ± 1°C), humidity (55 ± 10%), 12:12 h of light and dark cycle and fed with standard pellet diet and filtered water (ad libitum).
Macrophages from the peritonial cavity of BALB/c mice (1 × 10^6 cellsml^−1) were allowed to adhere to round glass coverslips in a 24 well tissue culture plate and incubated for 12 h at 37°C in a CO2 incubator. After removal of the non-adherent macrophages, the cells were infected with stationary phase promastigotes using a cell to parasite ratio of 1:10 and incubated at 37°C for 24 h. The non-phagocytosed parasites were removed by washing, and the infected macrophages incubated with the test compounds 9, 12, 14, and 18 (0–25 μM) for an additional 48 h. The coverslips were fixed in methanol and giemsa-stained for microscopic evaluation (100X) of amastigote infectivity. Number of amastigotes per 100 macrophages were enumerated and the concentration that decreased amastigotes by 50% (IC50) was determined (Wong et al., [2012]; Islamuddin et al., [2014a]).
as §3

[13] = broth microdilution, 35°C, 48 h
[14] = Leishmania donovani, 72 h, 22°C, values given in μM, read-out: IC50 against promastigotes

Row | SMILES | melting point [°C] | MIC [1] [µg/mL] | MFC [1] [µg/mL] | MIC, An ATCC 16404 [1] [µg/mL] | MIC [2, 13] [µg/mL] | MFC [2] [µg/mL] | MFC [3] [µg/mL] | MIC [4] [µg/mL] | MFC [4] [µg/mL] | MIC, Af ATCC 16424 [4] [µg/mL] | Anti-leishmanial activity, in words (compounds with IC50 determined) [5] | MIC [6] [µg/mL] | MBC [6] [µg/mL] | MIC [7] [µg/mL] | MBC [7] [µg/mL] | MIC [8] [µg/mL] | MBC [8] [µg/mL] | MIC [9] [µg/mL] | MBC [9] [µg/mL] | Parasite viability after treatment [10] | other results
1 | C/C(=C\c1ccc(O)cc1)[N+](=O)[O-] [Compound 17, 4-((E)-2-nitroprop-1-enyl) phenol] | 122 to 124 | 2 to 4 (≈ 11.2 to 22.3 µM) | 4 (≈ 22.3 µM) | 4 (≈ 22.3 µM) | 4 to 32 (≈ 22.3 to 179 µM) | 8 (≈ 44.6 µM) | 8 (≈ 44.6 µM) | 4 to 8 (≈ 22.3 to 44.6 µM) | 8 (≈ 44.6 µM) | 8 (≈ 44.6 µM) | moderately active | 16 to 32 (≈ 89.3 to 179 µM) | 32 (≈ 179 µM) | 2 to 16 (≈ 11.2 to 89.3 µM) | 2 (≈ 11.2 µM) | 2 to 32 (≈ 11.2 to 179 µM) | 4 (≈ 22.3 µM) | 16 to 32 (≈ 89.3 to 179 µM) | 16 (≈ 89.3 µM) | All the parasites were found to be dead | MIC, Ca ATCC 90028 [2, 13]: 8 µg/mL (≈ 44.6 µM); IC50 [5, 14]: 39.4 ± 1.36 µM; MIC, Pa ATCC 27853 [6]: 16 µg/mL (≈ 89.3 µM); MIC, Se ATCC 14990 [7]: 2 µg/mL (≈ 11.2 µM); MIC, Sa ATCC 29213 [8]: 4 µg/mL (≈ 22.3 µM); MIC, Ec ATCC 25922 [9]: 16 µg/mL (≈ 89.3 µM)
2 | CC/C(=C\c1cccc(O)c1)[N+](=O)[O-] [Compound 21, 3-((E)-2-nitrobut-1-enyl) phenol] | 82 to 84 | 2 to 4 (≈ 10.4 to 20.7 µM) | 8 (≈ 41.4 µM) | 4 (≈ 20.7 µM) |  | 32 (≈ 166 µM) | 16 (≈ 82.8 µM) | 4 to 8 (≈ 20.7 to 41.4 µM) | 8 (≈ 41.4 µM) | 8 (≈ 41.4 µM) |  | 16 to 32 (≈ 82.8 to 166 µM) | 64 (≈ 331 µM) | 2 to 16 (≈ 10.4 to 82.8 µM) | 2 (≈ 10.4 µM) | 2 to 32 (≈ 10.4 to 166 µM) | 4 (≈ 20.7 µM) | 16 to 32 (≈ 82.8 to 166 µM) | 64 (≈ 331 µM) | All the parasites were found to be dead | IC50 [5, 14]: 28.4 ± 3.11 µM; MIC, Pa ATCC 27853 [6]: 32 µg/mL (≈ 166 µM); MIC, Se ATCC 14990 [7]: 2 µg/mL (≈ 10.4 µM); MIC, Sa ATCC 29213 [8]: 2 µg/mL (≈ 10.4 µM); MIC, Ec ATCC 25922 [9]: 32 µg/mL (≈ 166 µM)
3 | COc1ccc(/C=C(\C)[N+](=O)[O-])cc1OC [Compound 23, 1,2-dimethoxy-4-((E)-2-nitroprop-1-enyl) benzene] | 70 to 72 | 8 (≈ 35.8 µM) | 8 (≈ 35.8 µM) |  | 32 (≈ 143 µM) | 32 (≈ 143 µM) | 4 (≈ 17.9 µM) | 16 (≈ 71.7 µM) | 16 (≈ 71.7 µM) |  | moderate activity | > 64 | > 64 | 8 (≈ 35.8 µM) | 8 (≈ 35.8 µM) | 8 (≈ 35.8 µM) | 16 (≈ 71.7 µM) | > 64 | > 64 | All the parasites were found to be dead | MIC [3]: 4 µg/mL (≈ 17.9 µM)
4 | C[C@@H]1[C@H](O)[C@@H](C)/C=C/C=C/C=C/C=C/C=C/C=C/C=C/[C@H](O[C@@H]2O[C@H](C)[C@@H](O)[C@H](N)[C@@H]2O)C[C@@H]2O[C@](O)(C[C@@H](O)C[C@@H](O)[C@H](O)CC[C@@H](O)C[C@@H](O)CC(=O)O[C@H]1C)C[C@H](O)[C@H]2C(=O)O [AmB, Amphotericin B, reference compound] |  | 1 (≈ 1.08 µM) | 1 (≈ 1.08 µM) |  | 0.5 (≈ 0.541 µM) | 0.5 (≈ 0.541 µM) | 0.5 (≈ 0.541 µM) | 0.5 (≈ 0.541 µM) | 1 (≈ 1.08 µM) |  |  |  |  |  |  |  |  |  |  |  | Leishmanicidal effect (reversion after wash and 72 h in fresh media) [11]: as also observed in positive drug control; IC50 [12]: 27.8 ± 3.26 nM; MIC [3]: 0.5 µg/mL (≈ 0.541 µM); IC50 ([5]; Leishmania donovani, 72 h, 22°C, mean from three determinations, read-out: L. donovani promastigotes IC50 ± SEM): 0.0196 ± 0.00171 µM; IC90 ([5]; Leishmania donovani, 72 h, 22°C, mean from three determinations, read-out: L. donovani promastigotes IC90 ± SEM): 82.6 ± 1.36 nM
